# Reference: PubChem BioAssay (NCI)
# Where “and” joins values, the source holds several entries; their conditions need not be identical. Identical values can stand only once.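 Following 48 hours of exposure in 96-well plates, responses at five concentrations were used to interpolate endpoints linearly. Here, GI50 denotes the concentration required for 50% inhibition of growth. TGI denotes the concentration required for complete inhibition of growth.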
# Columns and labels:
# Assay in all cases: DTP human tumour cell line panel, 48 h
# SNB-75 CNS = system: SNB-75 CNS
# 786-0 renal = system: 786-0 renal
# UACC-62 melanoma = system: UACC-62 melanoma
# NCI-H23 lung = system: NCI-H23 lung
# SK-MEL-5 melanoma = system: SK-MEL-5 melanoma
# SF-268 CNS = system: SF-268 CNS
# CCRF-CEM leukemia = system: CCRF-CEM leukemia
# UACC-257 melanoma = system: UACC-257 melanoma
# OVCAR-3 ovarian = system: OVCAR-3 ovarian
# SK-OV-3 ovarian = system: SK-OV-3 ovarian
Compound,GI50 (SNB-75 CNS),TGI (SNB-75 CNS),GI50 (786-0 renal),TGI (786-0 renal),GI50 (UACC-62 melanoma),TGI (UACC-62 melanoma),GI50 (NCI-H23 lung),TGI (NCI-H23 lung),GI50 (SK-MEL-5 melanoma),TGI (SK-MEL-5 melanoma),GI50 (SF-268 CNS),TGI (SF-268 CNS),GI50 (CCRF-CEM leukemia),TGI (CCRF-CEM leukemia),GI50 (UACC-257 melanoma),TGI (UACC-257 melanoma),GI50 (OVCAR-3 ovarian),TGI (OVCAR-3 ovarian),GI50 (SK-OV-3 ovarian),TGI (SK-OV-3 ovarian)
CC/C(=N\Nc1nc2ccccc2n1C)c1ccccn1,0.478 µM,8.84 µM,0.211 µM,1.52 µM,0.142 µM,0.839 µM,0.0452 µM,17.6 µM,0.174 µM,1.39 µM,0.194 µM,11.1 µM,0.0294 µM,> 36 µM,0.0735 µM,2.64 µM,< 0.01 µM,10.9 µM,0.064 µM,1.58 µM
O=S(=O)(NCCNc1nccc(-c2c(-c3cccc(O)c3)nc3sccn23)n1)c1ccc(F)cc1,1.2 µM,34.9 µM,5.35 µM,41.8 µM,0.26 µM,10.3 µM,11.1 µM,38.2 µM,1.61 µM,3.98 µM,7.51 µM,42.3 µM,2.8 µM,> 100 µM,0.568 µM,16.5 µM,8.53 µM,34.5 µM,5.37 µM,59 µM
COc1ccc(/C=C/c2cc(OC)c(O[Si](C)(C)C(C)(C)C)c(OC)c2)cc1,,> 100 µM,,> 100 µM,,> 100 µM,,> 100 µM,,> 100 µM,,> 100 µM,,> 100 µM,,> 100 µM,,> 100 µM,,> 100 µM
CN(C)CCNC(=O)c1cccc2nc3ccc4ccccc4c3nc12,,0.517 µM,,1.99 µM,,0.256 µM,,0.221 µM,,0.236 µM,,0.675 µM,,1.34 µM,,0.531 µM,,0.53 µM,,2.06 µM
CCCNc1nc(N(C)O)nc(N(C)O)n1,16.4 µM,> 75.3 µM,2.53 µM,> 43.4 µM,3.09 µM,> 56.9 µM,4.73 µM,> 100 µM,1.6 µM,6.61 µM,1.39 µM,> 56.6 µM,0.432 µM,5.46 µM,4.13 µM,> 46.2 µM,0.783 µM,9.23 µM,3.46 µM,> 100 µM
CC1=C(N2CC2)C(=O)C(CO)=C(N2CC2)C1=O,,0.38 µM,0.00201 µM,0.0199 µM and 0.133 µM,,0.146 µM and 0.23 µM,0.00143 µM,,0.0399 µM,0.162 µM and 0.312 µM,0.00666 µM,,0.000612 µM,,0.0761 µM,0.527 µM and 2.41 µM,0.0377 µM,0.557 µM and 0.0564 µM,0.186 µM,1.81 µM
COc1c(OC(C)=O)cc2c(OC(C)=O)c1CC(C)CC(OC)C(O)C(C)/C=C(\C)C(OC(N)=O)C(OC)/C=C\C=C(/C)C(=O)N2 (centres undefined),,> 100 µM,,> 100 µM,,> 100 µM,,> 100 µM,,> 100 µM,,> 100 µM,,98.3 µM,,> 100 µM,,> 100 µM,,> 100 µM
CCN1CCN(CCOc2ccc(CNc3ccc4nc(CCC5CCCCC5)[nH]c4c3)cc2)CC1,1.66 µM,4.07 µM,1.57 µM,3.39 µM,1.93 µM,3.52 µM,2.38 µM,6.94 µM,1.73 µM,3.17 µM,2 µM,5.16 µM,1.61 µM,8.75 µM,1.85 µM,4.12 µM,1.89 µM,4.34 µM,2.28 µM,5.16 µM
O=C1C2=C(C(=O)c3c(O)ccc(O)c31)N(c1ccc(N3CCOCC3)nc1)Cc1ccccc1O2,1.24 µM,7.27 µM,0.206 µM,0.45 µM,0.369 µM,1.56 µM,0.421 µM,1.88 µM,1.36 µM,2.76 µM,1.37 µM,4.06 µM,0.0778 µM,,0.556 µM,1.52 µM,0.227 µM,0.651 µM,2.89 µM,11.8 µM
O=C(Oc1cccnc1)c1ccccc1Nc1ccnc(C(F)(F)F)c1,> 63.4 µM,> 100 µM,0.158 µM,4.64 µM,0.313 µM,> 64.6 µM,0.049 µM,1.83 µM,0.203 µM,2.35 µM,0.333 µM,14.4 µM,0.0334 µM,> 100 µM,35.7 µM,> 100 µM,0.141 µM,0.453 µM,0.25 µM,> 100 µM
Oc1nc(NCCc2ccccc2)sc1/C=C1\C=Nc2ncccc21,1.81 µM and 1.8 µM,4.11 µM and 4.29 µM,3.03 µM and 3.02 µM,11.2 µM and 9.85 µM,2.38 µM and 2.93 µM,8.56 µM and 8.7 µM,1.62 µM and 2.4 µM,5.72 µM and 8.12 µM,2.45 µM and 2.83 µM,6.67 µM and 7.88 µM,2.72 µM and 2.63 µM,9.07 µM and 8.87 µM,3.31 µM and 2.42 µM,13.9 µM and 7.8 µM,3.49 µM and 3.36 µM,8.68 µM and 8.42 µM,2.16 µM and 2.06 µM,9.39 µM and 7.33 µM,2.08 µM and 2.77 µM,15.2 µM and 9.07 µM
O=C(CCCn1c2c(sc3ncccc32)c(=O)n2nnc(-c3ccccc3)c12)NCCc1cnc[nH]1,15.1 µM,28.9 µM,12.6 µM,25.7 µM,16 µM,30.5 µM,14.5 µM,32.2 µM,16.1 µM,> 100 µM,11.7 µM,29.1 µM,0.222 µM,4.48 µM,18.3 µM,35.6 µM,11 µM,23.6 µM,14.3 µM,27.7 µM
CCOc1ccccc1NC(=O)C(=O)CC(=O)C1=C(C)Nc2ccccc2S1,,> 100 µM,,> 100 µM,,> 100 µM,,> 100 µM,,> 100 µM,,> 100 µM,,> 100 µM,,> 100 µM,,> 100 µM,,> 100 µM
COC(=O)CCC(NC(=S)N/N=C(\C)c1ccccn1)C(=O)OC (centres undefined),,> 100 µM,,> 100 µM,,> 100 µM,,> 100 µM,,> 100 µM,,> 100 µM,,> 100 µM,,> 100 µM,,> 100 µM,,> 100 µM
O=c1[nH]c(=S)[nH]c2c1sc(=S)n2-c1ccccc1,,> 100 µM,,> 100 µM,,> 100 µM,,> 100 µM,,> 100 µM,,> 100 µM,,> 100 µM,,> 100 µM,,> 100 µM,,> 100 µM
